Assay results published in patent US11167007B2, “FOXM1 modulators and uses thereof” (City of Hope, priority 2016, dated 2021).

Key:
AR activity in LA muscle = experiment: RT-qPCR of androgen-regulated transcripts in LA muscle; format: in vivo, rat; conditions: rats, four genes, FIG. 5H
Description: Animals and Drugs. This study was carried out in strict accordance with the recommendations in the Guide for the Care and Use of Laboratory Animals of the National Institutes of Health. All experiments were performed under the IUCAC approval of City of Hope. Animals were purchased from Jackson Laboratory (Bar Harbor, Main). For the pilot pharmacokinetic experiment, nine male Sprague Dawley rats (n=3) were administered 1, 10, or 100 mg/kg intraperitoneal injections thrice per week for four weeks. One hour following the final dose, blood and spinal fluid were collected and analyzed by mass spectrometry. For the efficacy experiment, rats were divided into 3 groups (n=7) as follows: intact, castrated, and thiostrepton. […] Following a treatment period of 7 days, rats were euthanized and organs harvested, weighed and processed for quantitative RT-PCR.
qRT-PCR. The quantitative RT-PCR method has been described by Jones et al, ACS Chem Biol, 3(7):412-8 (2008). […] Differences between experimental (x) and control (y) samples were normalized to RPL19 transcript levels (androgen unresponsive) and determined with the following calculation: (2^(Ctsgene1-Ctygene1))/(2^(CtxRPL19-CtyRPL19)) One-way analysis of variance was applied to determine statistical significant among groups, where p<0.05 was considered significant. […]

[1] = Pilot pharmacokinetic study, plasma and spinal fluid by LC-MS/MS; format: in vivo, rat
Description: Animals and Drugs. This study was carried out in strict accordance with the recommendations in the Guide for the Care and Use of Laboratory Animals of the National Institutes of Health. All experiments were performed under the IUCAC approval of City of Hope. Animals were purchased from Jackson Laboratory (Bar Harbor, Main). For the pilot pharmacokinetic experiment, nine male Sprague Dawley rats (n=3) were administered 1, 10, or 100 mg/kg intraperitoneal injections thrice per week for four weeks. One hour following the final dose, blood and spinal fluid were collected and analyzed by mass spectrometry. For the efficacy experiment, rats were divided into 3 groups (n=7) as follows: intact, castrated, and thiostrepton. Thiostrepton was dissolved in 20% DMSO and 80% PEG400 (Sigma Aldrich) and administered at a concentration of 50 mg/kg per day via an IP osmotic pump implant (Alzet). Following a treatment period of 7 days, rats were euthanized and organs harvested, weighed and processed for quantitative RT-PCR.
LC-MS/MS methods. Dried samples were resuspended in tetrahydrofuran spiked with 5 pg/μl reserpine, which was used as an instrument response control. Resuspended samples were separated with an Agilent 1290 UHPLC system (Agilent Technologies, Santa Clara, Calif.) and a Waters Acquity CSH C18 column (Waters, Millford, Mass.) using a linear gradient from 95% buffer A (0.1% formic acid in 60% water/40% acetonitrile) to 100% buffer B (0.1% formic acid in 90% isopropanol/10% acetonitrile) over 2.5 minutes at 380 μL/minute. The UHPLC column eluent was sprayed into an Agilent 6490 triple quadrupole mass spectrometer equipped with a JetStream source (Agilent Technologies). Thiostrepton was detected by monitoring fragments from the doubly charged ion (m/z 832.9) at m/z 1247.4 and 1230.3. Data was analyzed using Agilent MassHunter quantitative analysis software.
A pilot pharmacokinetic study in rats was conducted to achieve desired dosing and to determine if thiostrepton crosses the blood brain barrier. Rats (n=3/group) received low (1 mg/kg), medium (10 mg/kg), or high (100 mg/kg) doses of thiostepton by intraperitoneal (IP) injection, three times a week for four weeks. One hour after the final dose, animals were euthanized and blood and spinal fluid was collected and analyzed by LC-MS/MS (FIG. 5A).

β-catenin = experiment: Western blot of β-catenin in nuclear and cytoplasmic fractions of GT1-7 cells; format: cell-based, murine; conditions: nuclear fraction, FIG. 3D
Excerpt: Western Blot. Cell lysates was separated on a 6% SDS page gel and transferred to a nitrocellulose membrane. The membrane was blocked for one hour in 5% skim milk dissolved in TBS-T and probed with the following antibodies ([…]): FoxM1 (rabbit, GeneTex), AR: 441 (mouse, Santa Cruz Biotechnology), β-catenin (rabbit 9562, Cell Signaling Technology), p84 (mouse, GeneTex) and actin (mouse, Santa Cruz Biotechnology). Horse radish peroxidase linked secondary antibodies were used along with ECL reagents for visualization. Western blots were quantified using Quantity One analysis software (BioRad).
It has been previously reported that thiostrepton causes decreased levels of FOXM1. Hegde et al, Nat Chem, 3(9):725-31 (2011); Gartel, Front Oncol, 3:150 (2013). […] The nuclear association between FOXM1 and β-catenin increases the transcriptional activity of both factors. Zhang et al, Cancer Cell, 20(4):427-42 (2011). β-catenin is a key AR coactivator in a variety of cells. Yang, J Biol Chem, 277(13):11336-44 (2002); Truica et al, Cancer Res, 60(17):4709-13 (2000). The inventors believed that thiostrepton could inhibit AR activity by limiting access to nuclear β-catenin via FOXM1 depletion. […] As expected, control actin protein was observed primarily in cytoplasmic fraction.

C=C(NC(=O)C(=C)NC(=O)c1csc(C2=N[C@@H]3c4csc(n4)[C@H]4NC(=O)c5csc(n5)[C@H]([C@](C)(O)[C@@H](C)O)NC(=O)[C@H]5CSC(=N5)/C(=C/C)NC(=O)[C@H]([C@@H](C)O)NC(=O)c5csc(n5)[C@]3(CC2)NC(=O)[C@H](C)NC(=O)C(=C)NC(=O)[C@H](C)NC(=O)[C@H]([C@@H](C)CC)N[C@@H]2C=Cc3c([C@H](C)O)cc(nc3[C@H]2O)C(=O)O[C@@H]4C)n1)C(N)=O [thiostrepton]
androgen-dependent gene transcript levels in LA muscle (AR activity in LA muscle): did not significantly affect | plasma levels ([1]; rats, 1, 10, 100 mg/kg IP three times a week for four weeks, one hour after final dose): dose-dependent increase | spinal fluid level relative to plasma ([1]; rats, IP, one hour after final dose): much lower levels than the plasma | spinal fluid concentration relative to IC50 in luciferase assay ([1]; rats, high dose): above its IC50 | levels of drug in the spinal fluid ([1]; rats, high dose (100 mg/kg) IP, one hour after final dose): measurable levels | levels of nuclear β-catenin (β-catenin): lower levels
